Results taken from US6653340B1, “Compounds useful in the complement, coagulat and kallikrein pathways and method for their preparation” (BioCryst Pharmaceuticals, Inc., priority 1997, dated 2003).
Like-named read-outs stand apart in the source and are kept apart here.

What was measured:
[1] = target: T1, C1s (Homo sapiens, UniProt P09871); assay: C1s esterolytic inhibition assay (Z-Lys-SBzl substrate); format: biochemical; conditions: Z-Lys-SBzl 1.29 mM, C1s 3 to 13 nM; read-out: Cls (Serine Protease Inhibitory Data, IC50)
T1 sequence (P09871 16-688): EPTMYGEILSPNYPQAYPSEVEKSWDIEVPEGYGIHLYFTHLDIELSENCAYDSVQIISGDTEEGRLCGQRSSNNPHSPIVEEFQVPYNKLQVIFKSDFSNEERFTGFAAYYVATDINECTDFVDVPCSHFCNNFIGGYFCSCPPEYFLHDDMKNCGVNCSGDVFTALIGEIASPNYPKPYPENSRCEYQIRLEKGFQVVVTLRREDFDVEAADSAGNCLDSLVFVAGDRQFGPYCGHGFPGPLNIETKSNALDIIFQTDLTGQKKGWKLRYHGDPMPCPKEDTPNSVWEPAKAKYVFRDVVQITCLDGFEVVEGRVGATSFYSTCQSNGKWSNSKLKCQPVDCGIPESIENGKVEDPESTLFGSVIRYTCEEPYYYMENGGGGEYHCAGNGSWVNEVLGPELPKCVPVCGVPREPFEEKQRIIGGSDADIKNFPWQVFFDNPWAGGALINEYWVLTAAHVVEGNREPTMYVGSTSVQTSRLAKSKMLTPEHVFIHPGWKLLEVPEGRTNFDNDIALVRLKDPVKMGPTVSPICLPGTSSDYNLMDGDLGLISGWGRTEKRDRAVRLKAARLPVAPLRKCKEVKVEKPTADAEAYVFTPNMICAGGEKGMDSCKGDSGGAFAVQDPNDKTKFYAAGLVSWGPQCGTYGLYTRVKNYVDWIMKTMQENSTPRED
Description: (§1) The compounds to be tested were dissolved in a stock solution of DMSO at 10.0 or 100 mM. A portion of this stock solution was added to assay buffer in a final volume of 100 μL containing the enzyme of interest. Controls included buffer alone and enzyme solutions to which DMSO was added. Substrate was added to the reaction wells immediately or after incubation at room temperature. The reaction rates were measured spectrophotometrically by the generation of product at 405 nm for 200 sec. Background absorbance at 690 nm was measured and subtracted from the absorbance at 405 nm for each well.
(§2) The reaction rate for enzyme alone was compared to the rate of enzyme in the presence of inhibitor and the percent inhibition was calculated as shown below:
(§3) Percent Inhibition=[Rate without inhibitor−Rate with inhibitor)/(Rate without inhibitor)]×100
(§4) Compounds in the examples were tested a minimum of three times.
C1s esterolytic activity was assayed using a modification of the technique originally described by Kam using Z-Lys-SBzl, 1.29 mM as substrate and C1s at 3 to 13 nM.

[2] = target: Thrombin (Homo sapiens, UniProt P00734); assay: Thrombin inhibition assay (N-Benzoyl-Phe-Val-Arg-p-nitroanilide substrate); format: biochemical; conditions: thrombin 12.5 U/ml, pH 7.5; read-out: Thrombin (Serine Protease Inhibitory Data, IC50)
Description: as §1, §2, §3, §4
(§5) Thrombin was assayed at 12.5 U/ml using 0.37 mM N-Benzoyl-Phe-Val-Arg-p-nitroanilide (Svendsen, L.; Blomback B.; Blomback, M.; Olsson, P. I. Substrate for determination of trypsin, thrombin and thrombin-like enzymes. Folia Haematol. 1972, 98, 446-454.) as the substrate in 100 mM HEPES, 10 mM CaCl2, 10% DMSO, pH 7.5. Factor Xa, 0.5 U/mL, was assayed in 50 mM HEPES, 150 mM NaCl, 10 mM CaCl2, pH 8.0 using Chromozyme X, 0.17 mM, as the substrate. Plasmin (0.004 units/mL), factor XIIa ([…]) and kallikrein (0.02 units/mL were assayed using modifications of the techniques originally described by McRae, et al. (Biochemistry. 1981, 20, 7196-7206). The assays were run in 200 mM triethanolamine, pH 7.8 and 100 mM Tris-HCl, 100 mM EDTA, […] using Z-Lys-SBzl, 0.13 mM and […], 0.16 mM, as substrates, respectively.

[3] = target: Factor Xa (Homo sapiens, UniProt P00742); assay: Factor Xa inhibition assay (Chromozyme X substrate); format: biochemical; conditions: Factor Xa 0.5 U/mL, pH 8.0; read-out: Xa (Serine Protease Inhibitory Data, IC50)
Factor Xa, sequence (P00742 235-488 limits assumed): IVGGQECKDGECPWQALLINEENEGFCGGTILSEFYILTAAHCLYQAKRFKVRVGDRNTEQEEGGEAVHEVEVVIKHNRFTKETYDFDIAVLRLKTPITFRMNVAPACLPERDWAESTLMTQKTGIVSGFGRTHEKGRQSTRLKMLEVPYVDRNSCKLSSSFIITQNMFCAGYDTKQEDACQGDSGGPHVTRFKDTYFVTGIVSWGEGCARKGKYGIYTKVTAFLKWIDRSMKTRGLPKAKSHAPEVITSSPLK
Factor Xa, sequence (P00742 41-179 partner limits assumed): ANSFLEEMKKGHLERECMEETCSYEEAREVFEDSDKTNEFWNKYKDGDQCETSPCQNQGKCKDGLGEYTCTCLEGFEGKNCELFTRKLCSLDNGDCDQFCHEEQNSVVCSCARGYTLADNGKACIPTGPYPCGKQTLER
Description: as §1, §2, §3, §4, §5

[4] = target: kallikrein (Homo sapiens, UniProt P03952); assay: Kallikrein inhibition assay (thioester substrate); format: biochemical; conditions: kallikrein 0.02 units/mL; read-out: Kallikrein (Serine Protease Inhibitory Data, IC50)
kallikrein, sequence (P03952 whole entry): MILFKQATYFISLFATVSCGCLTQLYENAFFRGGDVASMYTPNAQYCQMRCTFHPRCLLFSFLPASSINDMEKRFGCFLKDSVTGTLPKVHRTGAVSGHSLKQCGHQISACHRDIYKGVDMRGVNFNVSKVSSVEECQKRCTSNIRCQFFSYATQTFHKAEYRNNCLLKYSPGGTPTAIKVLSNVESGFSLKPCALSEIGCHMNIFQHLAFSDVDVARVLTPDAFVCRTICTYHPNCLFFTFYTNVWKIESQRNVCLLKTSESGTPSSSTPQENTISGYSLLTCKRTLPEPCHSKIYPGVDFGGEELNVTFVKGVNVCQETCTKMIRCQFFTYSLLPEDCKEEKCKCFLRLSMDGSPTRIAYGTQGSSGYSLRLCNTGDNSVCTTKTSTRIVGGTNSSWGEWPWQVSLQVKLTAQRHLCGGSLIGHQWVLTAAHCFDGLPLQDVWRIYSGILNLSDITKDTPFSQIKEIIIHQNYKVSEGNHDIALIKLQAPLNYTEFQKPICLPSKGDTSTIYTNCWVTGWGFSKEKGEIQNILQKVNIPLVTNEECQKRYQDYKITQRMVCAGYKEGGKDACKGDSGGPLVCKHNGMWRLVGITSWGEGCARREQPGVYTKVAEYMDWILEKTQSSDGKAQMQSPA
Description: as §1, §2, §3, §4, §5

[5] = target: T2, factor XIIa (Homo sapiens, UniProt P00748); assay: Factor XIIa inhibition assay (thioester substrate); format: biochemical; conditions: read-out: XIIa (Serine Protease Inhibitory Data, IC50)
T2 sequence (P00748 373-615 limits assumed): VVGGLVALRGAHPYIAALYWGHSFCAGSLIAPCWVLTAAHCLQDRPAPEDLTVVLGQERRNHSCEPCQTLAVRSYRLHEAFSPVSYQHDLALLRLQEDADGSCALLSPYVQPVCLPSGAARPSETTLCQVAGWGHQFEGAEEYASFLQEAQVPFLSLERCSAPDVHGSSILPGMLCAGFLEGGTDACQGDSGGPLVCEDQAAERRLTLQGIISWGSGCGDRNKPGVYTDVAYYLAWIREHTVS
Description: as §1, §2, §3, §4, §5

[6] = target: Plasmin (Homo sapiens, UniProt P00747); assay: Plasmin inhibition assay (thioester substrate); format: biochemical; conditions: plasmin 0.004 units/mL; read-out: Plasmin (Serine Protease Inhibitory Data, IC50)
Plasmin, sequence (P00747 581-810 limits assumed, species assumed): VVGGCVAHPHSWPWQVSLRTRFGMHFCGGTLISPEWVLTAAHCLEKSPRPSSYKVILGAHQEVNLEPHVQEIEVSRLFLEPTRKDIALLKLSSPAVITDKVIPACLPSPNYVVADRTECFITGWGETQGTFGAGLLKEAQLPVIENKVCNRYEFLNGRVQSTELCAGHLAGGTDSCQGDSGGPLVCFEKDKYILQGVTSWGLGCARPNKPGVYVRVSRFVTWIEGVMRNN
Plasmin, sequence (P00747 97-580 partner limits assumed, species assumed): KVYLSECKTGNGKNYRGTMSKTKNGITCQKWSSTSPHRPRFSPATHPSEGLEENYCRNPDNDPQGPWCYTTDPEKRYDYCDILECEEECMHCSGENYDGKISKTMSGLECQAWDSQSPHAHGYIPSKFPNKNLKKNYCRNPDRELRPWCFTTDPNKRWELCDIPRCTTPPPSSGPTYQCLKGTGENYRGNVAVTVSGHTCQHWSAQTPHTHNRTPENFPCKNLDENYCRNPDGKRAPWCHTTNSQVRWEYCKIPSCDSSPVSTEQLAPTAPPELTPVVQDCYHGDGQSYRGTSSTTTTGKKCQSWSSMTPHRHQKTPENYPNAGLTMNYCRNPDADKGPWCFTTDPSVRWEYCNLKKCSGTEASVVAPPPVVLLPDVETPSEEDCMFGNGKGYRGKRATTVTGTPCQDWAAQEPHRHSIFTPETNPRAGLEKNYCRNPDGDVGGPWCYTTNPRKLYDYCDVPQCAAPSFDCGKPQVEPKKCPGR
Description: as §1, §2, §3, §4, §5

[7] = target: T3, Factor D (Homo sapiens, UniProt P00746); assay: Factor D esterolytic inhibition assay (Z-Lys-SBzl substrate); format: biochemical; design: Factor D was purified from the urine of a patient with Fanconi syndrome by ion exchange chromatography; from tissue; host or cells: urine of a patient with Fanconi syndrome; conditions: Z-Lys-SBzl 1.29 mM, pH 7.5, 10% DMSO; read-out: Factor D (Serine Protease Inhibitory Data, IC50)
T3 sequence (P00746 26-253): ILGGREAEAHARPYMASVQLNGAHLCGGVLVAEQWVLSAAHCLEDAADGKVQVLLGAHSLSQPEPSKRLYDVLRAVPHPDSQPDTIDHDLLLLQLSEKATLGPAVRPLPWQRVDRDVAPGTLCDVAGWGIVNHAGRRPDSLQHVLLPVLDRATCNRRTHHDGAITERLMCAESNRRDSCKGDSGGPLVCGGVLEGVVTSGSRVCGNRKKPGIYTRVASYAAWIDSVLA
From the text: A modification of the procedure of Volanakis (Volankis, J. E.; Barnum, S. R.; Kilpatrick, J. M. Purification and properties of human factor D. Methods in Enzymol. 1993, 223, 82-97) for purification of Factor D was utilized as described by Yamauchi (Yamauchi, Y.; Stevens, J. W.; Macon, K. J.; Volanakis, J. E. Recombinant and native zymogen forms of human complement factor D. J. Immunol. 1994, 152, 3645-3653. Briefly, Factor D was purified from the urine of a patient with Fanconi syndrome by ion exchange chromatography using BioRex 70 and two rounds of ion-exchange chromatography in a Pharmacia FPLC system using a HR5/5 Mono S column.
as §1, §2, §3, §4
An established esterolytic assay for the measurement of Factor D activity and inhibition of Factor D activity was used (Kam, C. M.; McRae, B. J.; Harper, J. W.; Niemann, M. A.; Volanakis, J. E.; Powers, J. C. Human complement proteins D, C2, and B Active site mapping with peptide thioester substrates. J Biol. Chem. 1987, 262, 3444-3451). […] Hydrolysis of this compound by Factor D liberated a free sulfhydryl group which is then reacted with 5,5′-dithiobis(2nitrobenzoic acid) producing an intense yellow color (Habeeb, A. F. S. A. Reaction of protein sulfhydryl groups with Ellman's Reagent. Methods in Enzymol. 1976, 25, 457-464.). The assays were performed in 96 well microtiter plates and rates of hydrolysis were monitored at 405 nm in a Anthos Labtec HT2 plate reader. Hydrolysis rates were reported as change in mOD/min. The assay was conducted in 100 mM HEPES, 500 mM NaCl, pH 7.5 containing 10% DMSO in a final volume of 200 μL per well.

[8] = target: Factor B (Homo sapiens, UniProt P00751); conditions: Ikari, N. et al. Immunology 49: 685-691, 1983; cited from earlier work
Factor B, sequence (P00751 26-764): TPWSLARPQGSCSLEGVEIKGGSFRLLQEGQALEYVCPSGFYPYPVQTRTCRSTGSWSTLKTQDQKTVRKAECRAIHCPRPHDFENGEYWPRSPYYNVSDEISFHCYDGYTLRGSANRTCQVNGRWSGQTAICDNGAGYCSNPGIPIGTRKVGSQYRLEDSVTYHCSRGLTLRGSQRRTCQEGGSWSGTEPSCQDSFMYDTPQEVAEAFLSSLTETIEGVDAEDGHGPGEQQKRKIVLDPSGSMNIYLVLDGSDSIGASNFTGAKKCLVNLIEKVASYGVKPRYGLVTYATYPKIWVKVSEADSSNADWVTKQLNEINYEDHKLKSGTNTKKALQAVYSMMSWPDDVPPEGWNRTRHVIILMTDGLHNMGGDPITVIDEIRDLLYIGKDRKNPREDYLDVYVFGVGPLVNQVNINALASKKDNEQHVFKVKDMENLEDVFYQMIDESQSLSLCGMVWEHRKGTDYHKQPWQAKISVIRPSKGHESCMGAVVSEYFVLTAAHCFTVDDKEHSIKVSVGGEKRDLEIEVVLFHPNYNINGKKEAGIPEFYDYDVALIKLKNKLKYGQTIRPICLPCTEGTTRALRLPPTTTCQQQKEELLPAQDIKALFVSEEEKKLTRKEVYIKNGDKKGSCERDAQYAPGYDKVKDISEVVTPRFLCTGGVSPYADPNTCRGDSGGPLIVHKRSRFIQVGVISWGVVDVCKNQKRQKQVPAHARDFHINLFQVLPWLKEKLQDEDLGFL

[9] = target: T3, Factor D; conditions: Inagi, R et al, Nephron 66: 285-290, 1994; cited from earlier work

IC50 [1] [nM]	IC50 [2] [nM]	IC50 [3] [nM]	IC50 [4] [nM]	IC50 [5] [nM]	IC50 [6] [nM]	IC50 [7] [nM]	Compound	IC50 [8] [nM]	IC50 [9] [nM]
2.5	42	31	2.6	10	21	205	N=C(N)c1nc2ccc(OC(=O)c3ccsc3)cc2s1 [Example 16]	–	–
2.9	51	3.9	3.6	6.1	1.5	347	N=C(N)C1=Cc2ccc(OC(=O)c3ccco3)cc2OC1 [Example 18, 3-amidino-7-(2H-1-benzopyran) 2-furancarboxylate methanesulfonate]	–	–
6	47	5	12	27	6	190	CC/C=C/C(=O)Oc1ccc2cc(C(=N)N)sc2c1 [Example 20]	–	–
22	678	1010	12	114	–	11000	N=C(N)c1ccc2cc(OC(=O)c3ccc(N=C(N)N)cc3)ccc2c1 [nafamostat, 6′-amidino-2-naphthyl-p-guanidinobenzoate, reference compound]	60000	25000
